Test [1] deals with soluble T cell receptor P14. Nature of the test: SPR.
The test system of test [2] is endogenous CD8^+ T cells. To be noted: mouse, in vivo; cited from earlier work.
Test [3] has as its system H-2D^b/peptide complexes (pMHC). Also noted: species or system murine. The settings on record: for melting temperature (Tm): pH 7.4.
The target of test [4] is H-2D^b (Mus musculus, UniProt P01899). Set-up: species or system murine.
The subject of test [5] is TCR P14. In kind it is binding.

“Also recorded” adds a separate entry of the source.

The term Kd denotes a measure of binding affinity in units of concentration. A low value points to tighter binding.

Sequence of H-2D^b (P01899 whole entry, looked up): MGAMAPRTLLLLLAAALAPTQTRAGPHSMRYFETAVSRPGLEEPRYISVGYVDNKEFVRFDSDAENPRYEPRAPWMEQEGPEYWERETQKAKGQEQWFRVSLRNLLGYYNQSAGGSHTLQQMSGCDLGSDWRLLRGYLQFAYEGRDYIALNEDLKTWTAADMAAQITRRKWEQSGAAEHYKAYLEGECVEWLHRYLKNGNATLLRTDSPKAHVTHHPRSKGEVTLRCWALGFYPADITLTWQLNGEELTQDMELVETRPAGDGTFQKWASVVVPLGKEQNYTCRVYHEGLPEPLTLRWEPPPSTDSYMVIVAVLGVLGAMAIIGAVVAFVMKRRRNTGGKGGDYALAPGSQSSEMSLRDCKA

“H-2D^b/gp33 (from UniProt P01887) (peptide-MHC)” came in with a Kd in test [1] of 6.3 µM.

Turning to KAPFNFATM [V3P_Y4F], in test [2], the “recognition of Y4F-presenting infected cells by endogenous CD8^+ T cells” value is listed as “efficiently restores recognition of infected cells presenting Y4F by endogenous CD8^+ T cells”.

KAPYNFATM [V3P]: in test [3], the “melting temperature (Tm)” value is 66.0 °C.

On to KAPYNfATM [V3P_F6f], for which, in test [3], the “thermal stability of pMHC (in words)” value is “slight decrease in stability” and the “melting temperature (Tm)” value amounted to 64.0 °C. For the same substance, in test [4], the “conformation of p6f / p4Y side chains and H155” value was “prevents the H-2D^b residue H155 to rotate counter clock wise and to assume a TCR-bound-like conformation”; the “distances H-2D^b W73:NH–p6:CO and H-2D^b Y156:OH–p6:NH” value was “both distances increase in comparison to the corresponding structures with the L-amino acid”; the pMHC complex formation result is given as “does not compromise complex formation”. Also, the “binding by TCR P14 (in words)” value in test [5] was “reduced P14 affinity; also recorded: significantly reduced binding by the H-2D^b/gp33-specific TCR P14”.

Consider KAVYNFATM [gp33, reference compound], for which, in test [3], the “melting temperature (Tm)” value is 63.5 °C.

As to KAVYNfATM [F6f], in test [3], the “thermal stability of pMHC (in words)” value is “slight decrease in stability” and the “melting temperature (Tm)” value is 61.5 °C. Further, in test [4], the “conformation of p6f / p4Y side chains and H155” value is recorded as “the side chain of p6f takes a different conformation in H-2D^b/F6f compared to H-2D^b/gp33”; the “distances H-2D^b W73:NH–p6:CO and H-2D^b Y156:OH–p6:NH” value is listed as “both distances increase in comparison to the corresponding structures with the L-amino acid”; the pMHC complex formation entry was “does not compromise complex formation”. In addition, in test [5], the “binding by TCR P14 (in words)” value is reported as “reduced P14 affinity; also recorded: significantly reduced binding by the H-2D^b/gp33-specific TCR P14”.

The record behind these values is publication PMC8945122 (ACS Omega, 2022).
